Test results taken from patent publication US5646156A, “Inhibition of eosinophil activation through A3 adenosine receptor antagonism” (Merck & Co., Inc., priority 1994, dated 1997).
Several values for one entry are separate records, joined by “and”; a condition that tells them apart may be missing. Equal entries are not always repeated. Entries after “also recorded” stand apart in the source; their conditions may differ. Where two headings read alike, the source gives them in different places.

How the values were obtained:
[1] = tested on: rat A3 adenosine receptor; details: reported in literature; cited from earlier work
[2] = tested on: human adenosine receptors (all subtypes); details: cited from earlier work
[3] = biological target: T1, human A3 adenosine receptor (Homo sapiens, UniProt P0DMS8); experiment: Saturation binding of 125I-ABA to membranes of CHO cells stably expressing HS-21a (human A3 adenosine receptor); details: for prevention of specific binding of 125I-ABA: 1 mM nonradioactive I-ABA (so in the source) or 400 μM NECA
T1 construct: clone HS-21a contained the complete open reading frame corresponding to the human homolog of the rat A3 adenosine receptor; expressed in transfected cells; host or cells: CHO cells, stably transfected (pCMV5-A3; pSVL and pREP vectors are also described)
T1 sequence (P0DMS8 1-318): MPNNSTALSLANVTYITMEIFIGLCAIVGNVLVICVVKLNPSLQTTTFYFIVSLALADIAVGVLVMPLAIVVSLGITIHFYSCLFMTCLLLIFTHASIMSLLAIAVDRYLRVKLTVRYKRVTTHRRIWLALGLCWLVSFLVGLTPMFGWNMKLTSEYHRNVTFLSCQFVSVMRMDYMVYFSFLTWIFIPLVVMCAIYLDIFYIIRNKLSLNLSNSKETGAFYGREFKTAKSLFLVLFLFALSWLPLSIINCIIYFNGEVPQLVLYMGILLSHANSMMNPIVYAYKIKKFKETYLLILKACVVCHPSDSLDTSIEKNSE

[4] = tested on: sheep A3 adenosine receptor; details: CHO cells; cited from earlier work
[5] = biological target: T1, human A3 adenosine receptor; experiment: Inhibition of forskolin-stimulated cAMP accumulation, CHO cells stably expressing HS-21a (human A3 adenosine receptor); assay type: cell-based
Protocol: (§1) Determinations were made on stably transfected CHO cells in suspension as described (Linden et al., (1993) Mol. Pharm. 44:524-532). Supernatants (500 μL) were acetylated and acetylcyclic AMP was measured by automated radioimmunoassay (Hamilton, B. R. and Smith, D. O. (1991) J. Physiol. (Lond.) 432, 327-341). Antagonist dissociation constants were estimated from pA2 values as described by Schild (1957) Pharm. Rev. 9, 242-246).
(§2) The ability of the HS-21a receptor stably expressed in CHO cells to couple to the cAMP regulatory system was measured using adenosine as an agonist. […] In the absence of forskolin, adenosine had no effect on the cAMP levels. In non-transfected CHO cells, adenosine had no effect on cAMP levels when measured with or without forskolin treatment.

[6] = tested on: cytokine activated eosinophils; experiment: Treatment of cytokine activated eosinophils (hypersensitivity to adenosine, degranulation, effector function); assay type: cell-based
[7] = biological target: T1, human A3 adenosine receptor; experiment: Competition binding vs 125I-ABA, membranes of CHO cells stably expressing HS-21a (human A3 adenosine receptor)
Protocol: Pellets were resuspended in 5 mM Hepes, pH 7.4/5 mM MgCl2 /0.1 mM benzamidine/0.1 mM PMSF at a protein concentration of 1-2 mg/mL and were incubated with adenosine deaminase (Boehringer Mannheim), 2 U/mL at 37° C. for 20 minutes. […] The assay was terminated by rapid filtration and three washes with ice-cold binding buffer on a Skatron harvester equipped with a receptor binding filtermat (Skatron Instruments, INC). […] Nonspecific binding was measured in the presence of 1 μM I-ABA. […] Binding data were analyzed and competition curves were constructed by use of the nonlinear regression curve fitting program Graph PAD InPlot, Version 3.0 (Graph Pad Software, San Diego).

[8] = biological target: sheep A3 adenosine receptor; details: cited from earlier work
[9] = biological target: T1, human A3 adenosine receptor; details: antagonist potency in cAMP assay; disclosed by Salvatore et al.; cited from earlier work
[10] = Radioligand binding to membranes from CHO cells (non-transfected / non-specific)
eosinophils = experiment: Induction of eosinophil activation in animals; details: in vivo
activated mast cells = details: cited from earlier work
[11] = tested on: non-transfected CHO cells; experiment: cAMP levels in non-transfected CHO cells; assay type: cell-based; details: with or without forskolin
Protocol: as §1, §2

asthmatics = details: cited from earlier work; for bronchoconstriction in asthmatics: not nonasthmatics
[12] = tested on: A2b adenosine receptor transcript, human eosinophils; experiment: A2b adenosine receptor transcript expression (RT-PCR) in GM-CSF stimulated eosinophils; assay type: cell-based; details: GM-CSF (150 pM, 16 hours)
Protocol: (§3) Eosinophils and neutrophils (80-99% purity) were purified from human peripheral blood by an immunomagnetic procedure described by Hansel et al. (1991) J. Immunol. Methods 145: 105-110. Isolated cells (2-2.6×10^6 cells/mL) were cultured in the presence of 150 pM human recombinant granulocyte-macrophage colony stimulating factor, GM-CSF (Calbiochem, San Diego, Calif.) for 16 hours in RPMI with 10% fetal calf serum, at 37° C. in 5% CO2. Total RNA was extracted by the guanidinium isothiocyanate method (Chirgwin, J. M., et al, (1979) Biochemistry 18:5294-5299) from approximately 1.3×10^7 human eosinophils (+) or (-) GM-CSF stimulation. […]
(§4) Human adenosine receptor subtype transcript expression was determined using the polymerase chain reaction (PCR). […]
(§5) Ten μl of each PCR amplification reaction was elecrophoresed on a 1.4% agarose gel and alkaline blotted to Zeta-Probe GT membranes according to the manufacturer's protocol (BIO-RAD, Hercules, Calif.). […] The presence of A2a, A2b and A3 receptor PCR products were detected from normal and GM-CSF treated eosinophils.
(§6) PCR reaction products were quantitated using a Molecular Dynamics Phosphorimager and ImageQuant software. […] Quantitation of GAPDH was used to correct message level differences in the (+) or (-) GM-CSF stimulated human eosinophils. […]

[13] = tested on: A3 adenosine receptor transcript, human eosinophils; experiment: A3 adenosine receptor transcript expression (RT-PCR) in GM-CSF stimulated eosinophils; assay type: cell-based; details: GM-CSF (150 pM, 16 hours)
Protocol: as §3, §4, §5, §6

[14] = tested on: A1 adenosine receptor transcript, human eosinophils; experiment: A1 adenosine receptor transcript expression (RT-PCR) in GM-CSF stimulated eosinophils; assay type: cell-based
Protocol: as §3, §4, §5, §6

[15] = tested on: A2a adenosine receptor transcript, human eosinophils; experiment: A2a adenosine receptor transcript expression (RT-PCR) in GM-CSF stimulated eosinophils; assay type: cell-based
Protocol: as §3, §4, §5, §6

[16] = 125I-ABA, HS-21a stable CHO cell membranes

CCCn1c(=O)c2[nH]c(C3CCCC3)nc2n(CCC)c1=O [DPCPX, 1,3-dipropyl-8-cyclopentylxanthine]
binding to rat A3 receptor [1]: not to bind
blockade of human adenosine receptor subtypes [2]: blocked

Nc1nc2c(ncn2[C@@H]2O[C@H](COP(=O)(O)OP(=O)(O)OP(O)(O)=S)[C@@H](O)[C@H]2O)c(=O)[nH]1 [GTPγS, guanosine 5'-O-3-thiotriphosphate]
inhibition at 10 µM ([3]; read-out: reduction of specific binding of 125I-ABA): 56%

Nc1ccc(CNc2ncnc3c2ncn3[C@@H]2O[C@H](CO)[C@@H](O)[C@H]2O)cc1I [I-ABA]
agonist type for lowering cyclic AMP [4]: full
prevention of specific binding of 125I-ABA [3]: prevented
inhibition of forskolin-stimulated cyclic AMP accumulation compared with NECA and other agonists (PIA and CPA) ([5]; CHO cells, human A3): only about half as much inhibition
agonist type for lowering cyclic AMP ([5]; CHO cells, human receptor): partial agonist
shift of NECA dose response curve to lower cyclic AMP ([5]; NECA in presence of I-ABA): fight-shifted

CCCn1c(=O)c2[nH]c(-c3ccc(OCC(=O)O)cc3)nc2n(Cc2ccc(N)c(I)c2)c1=O [I-ABOPX, 3-(3-iodo-4-aminobenzyl)-8-(4-oxyacetate)phenyl-1-propylxanthine]
hypersensitivity to adenosine, eosinophil degranulation and effector function [6]: blockade of this hypersensitivity and inhibition of eosinophil degranulation and effector function
Ki ([7]; competition with 125I-ABA, CHO membranes, human A3): 18 nM
affinity for human A3 receptor ([7]; in words): highest affinity antagonist yet reported for A3 adenosine receptors
Ki [8]: 2 nM
cAMP pKi [9]: 8.13

CCNC(=O)[C@H]1O[C@@H](n2cnc3c(N)ncnc32)[C@H](O)[C@@H]1O [NECA, N-ethylcarboxamidoadenosine]
prevention of specific binding of 125I-ABA [3]: prevented

CCCn1c(=O)c2[nH]c(-c3ccc(OCC(=O)NCCN)cc3)nc2n(CCC)c1=O [XAC, xanthine amine cogener]
binding to rat A3 receptor [1]: not to bind
blockade of human adenosine receptor subtypes [2]: blocked

Nc1ccc(CNc2ncnc3c2ncn3[C@@H]2O[C@H](CO)[C@@H](O)[C@H]2O)cc1[125I] [^125 I-ABA, N^6-(4-amino-3-^125 iodobenzyl)adenosine]
Bmax [3, 16]: 258 fmol/mg protein
Hill coefficient [3, 16]: 0.99
Kd ([3]; 125I-ABA, HS-21a stable CHO cell membranes, read-out: dissociation constant): 10 nM
specific binding to non-transfected CHO cell membranes ([10]; 125I-ABA): No specific binding

Nc1ccc(CCNc2ncnc3c2ncn3[C@@H]2O[C@H](CO)[C@@H](O)[C@H]2O)cc1[125I] [^125 I-APNEA, N^6-2-(4-amino-3-^125 iodophenyl)ethyladenosine]
non-specific binding to CHO cell membranes ([10]; 125I-APNEA, preliminary experiments): high non-specific

Nc1ncnc2c1ncn2[C@@H]1O[C@H](CO)[C@@H](O)[C@H]1O [adenosine]
eosinophil activation in animals (eosinophils): induce eosinophil activation
release of histamine from activated mast cells (activated mast cells): potentiate
inhibition at 10 µM ([5]; CHO, read-out: inhibition of forskolin-stimulated increase in cAMP): 30%
effect on cAMP levels in absence of forskolin ([5]; HS-21a CHO cells, no forskolin): no effect
effect on cAMP levels in non-transfected CHO cells [11]: no effect
bronchoconstriction in asthmatics (asthmatics; listed as Adenosine): induces bronchoconstriction in asthmatics but not in normal individuals; also recorded: produces bronchoconstriction in asthmatics but not in nonasthmatics
bronchoconstriction in asthmatics (asthmatics): produces bronchoconstriction

Cn1c(=O)c2[nH]cnc2n(C)c1=O [theophylline]
antagonism of adenosine-induced bronchoconstriction (asthmatics): antagonized

GM-CSF: human recombinant granulocyte-macrophage colony stimulating factor, GM-CSF (Calbiochem, San Diego, Calif.)
up-regulation of A2b transcripts [12]: ~3 fold and 3 to 4 fold
up-regulation of A3 transcripts [13]: ~10 fold
A1 transcript expression [14]: no A1 products were observed; also recorded: remained unchanged
A2a transcript / message level change [15]: no change; also recorded: remained unchanged
